One series deals with T1, CYP2C8 (Homo sapiens, UniProt P10632).
T1 construct: Pooled human microsomes were obtained from Sekisui XenoTech, KS; tissue Sekisui XenoTech, KS; host or cells: pooled human liver microsomes
T1 sequence (P10632 1-490): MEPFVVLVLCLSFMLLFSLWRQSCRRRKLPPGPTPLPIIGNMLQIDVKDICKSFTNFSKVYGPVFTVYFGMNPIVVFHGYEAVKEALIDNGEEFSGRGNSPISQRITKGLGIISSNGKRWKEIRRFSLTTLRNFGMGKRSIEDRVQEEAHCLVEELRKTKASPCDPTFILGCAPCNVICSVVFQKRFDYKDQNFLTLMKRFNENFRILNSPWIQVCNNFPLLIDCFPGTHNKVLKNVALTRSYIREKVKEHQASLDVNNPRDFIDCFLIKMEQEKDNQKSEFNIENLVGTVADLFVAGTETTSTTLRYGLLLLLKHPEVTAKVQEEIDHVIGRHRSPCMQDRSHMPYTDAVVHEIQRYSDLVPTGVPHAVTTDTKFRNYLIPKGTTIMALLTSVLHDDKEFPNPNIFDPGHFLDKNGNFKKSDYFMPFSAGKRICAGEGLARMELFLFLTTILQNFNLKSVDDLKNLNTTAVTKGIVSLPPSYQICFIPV
Nature of the series: CYP Inhibition Assay (CYP2C8, human liver microsomes, paclitaxel substrate). The series is classed as in vitro ADME. The conditions noted are these: pH 7.4; pooled human liver microsomes 0.1 mg/mL, probe substrate paclitaxel. The method in brief: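 CYP2C8 activity read as 6α-hydroxypaclitaxel formation by LC-MS/MS, with % inhibition versus vehicle control. Reactions ran 5 min at 37° C, pH 7.4 phosphate buffer, 0.1 mg/mL pooled human liver microsomes, 1 mM NADPH, duplicate wells.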
(Microsomes from liver hold many membrane-bound enzymes, among them those of drug oxidation.)

The next series addresses T2, GR (Homo sapiens, UniProt P04150).
T2 construct: expressed in transfected cells; host or cells: CHO-K1
T2 sequence (P04150 1-777): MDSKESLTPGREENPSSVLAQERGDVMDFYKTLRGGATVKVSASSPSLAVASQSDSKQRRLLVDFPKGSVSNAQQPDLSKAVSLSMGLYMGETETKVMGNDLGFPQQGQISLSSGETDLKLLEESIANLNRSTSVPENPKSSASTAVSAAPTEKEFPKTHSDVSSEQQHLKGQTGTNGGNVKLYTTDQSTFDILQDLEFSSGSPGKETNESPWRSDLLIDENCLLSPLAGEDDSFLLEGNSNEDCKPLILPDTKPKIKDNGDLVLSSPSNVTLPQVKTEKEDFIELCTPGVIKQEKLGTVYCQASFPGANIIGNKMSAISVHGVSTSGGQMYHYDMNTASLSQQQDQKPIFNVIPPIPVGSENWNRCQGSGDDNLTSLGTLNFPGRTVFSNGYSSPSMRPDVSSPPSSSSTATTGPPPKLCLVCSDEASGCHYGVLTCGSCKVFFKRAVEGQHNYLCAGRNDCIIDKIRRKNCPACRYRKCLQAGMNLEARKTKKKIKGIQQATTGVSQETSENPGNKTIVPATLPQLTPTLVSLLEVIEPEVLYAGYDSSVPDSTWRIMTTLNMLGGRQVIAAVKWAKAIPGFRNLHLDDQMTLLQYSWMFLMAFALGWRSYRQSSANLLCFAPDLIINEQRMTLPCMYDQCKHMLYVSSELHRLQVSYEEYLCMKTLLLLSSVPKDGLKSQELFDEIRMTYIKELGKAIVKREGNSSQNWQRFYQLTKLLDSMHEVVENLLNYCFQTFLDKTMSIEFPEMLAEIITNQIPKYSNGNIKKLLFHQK
Nature of the series: In Vitro GR Luciferase Reporter Assay (antagonist mode, CHO-K1-GR-MMTV-Luc reporter cells). The series is classed as cell-based. The conditions noted are these: antagonist mode, 10 nM Dexamethasone. The method in brief: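 Antagonist mode: compounds (8 serial 1:5 dilutions) added to GR-MMTV-luciferase CHO-K1 reporter cells co-exposed to 10 nM dexamethasone final, in phenol red-free DMEM plus 10% CSS. After roughly 18-24 h at 37° C, OneGlo luminescence read and IC50 calculated.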

The structures appear in SMILES notation.

The record followed here is patent US20210122730A1, “GLUCOCORTICOID RECEPTOR MODULATORS” (ORIC Pharmaceuticals, Inc., priority 2017, published 2021).

The inhibition is the percentage by which the read-out fell short of the control. Read a low inhibition as a response near the control. As usually defined, the IC50 is the concentration that inhibits the measured activity by half. Lower therefore signals higher potency.

For `CC(C)N([C@H]1CCC2=Cc3c(cnn3-c3ccc(F)cc3)C[C@]2(C(=O)c2ncc(C(F)(F)F)s2)C1)S(=O)(=O)c1cn(C)cn1` [Example 299, N-((4aS,6S)-1-(4-fluorophenyl)-4a-(5-(trifluoromethyl)thiazole-2-carbonyl)-4,4a,5,6,7,8-hexahydro-1H-benzo[f]indazol-6-yl)-N-isopropyl-1-methyl-1H-imidazole-4-sulfonamide], the inhibition at 5 min at CYP2C8 is no more than 25%. The molecule also registered a half-maximal inhibitory concentration (IC50) at GR of no more than 100 nM.
For `Cn1ncc(S(=O)(=O)N(CC(F)(F)F)[C@H]2CCC3=Cc4c(cnn4-c4ccc(F)cc4)C[C@]3(C(=O)c3ncc(C(F)(F)F)s3)C2)n1` [Example 300, N-((4aS,6S)-1-(4-fluorophenyl)-4a-(5-(trifluoromethyl)thiazole-2-carbonyl)-4,4a,5,6,7,8-hexahydro-1H-benzo[f]indazol-6-yl)-2-methyl-N-(2,2,2-trifluoroethyl)-2H-1,2,3-triazole-4-sulfonamide], in that order: 50 to 75% and no more than 100 nM.
`Cc1ncc(S(=O)(=O)N(C2CC2)[C@H]2CCC3=Cc4c(cnn4-c4ccc(F)cc4)C[C@]3(C(=O)c3cc(C(F)(F)F)ccn3)C2)n1C` [Example 307, N-cyclopropyl-N-((4aS,6S)-1-(4-fluorophenyl)-4a-(4-(trifluoromethyl)picolinoyl)-4,4a,5,6,7,8-hexahydro-1H-benzo[f]indazol-6-yl)-1,2-dimethyl-1H-imidazole-5-sulfonamide] registered an inhibition at 5 min against CYP2C8 of 25 to 50%. The molecule also returned a concentration for half-maximal inhibition (IC50) on GR of no more than 100 nM.
With `CCn1ccc(S(=O)(=O)[C@H]2CCC3=Cc4c(cnn4-c4ccc(F)cc4)C[C@]3(C(=O)c3ccc(C(F)(F)F)cn3)C2)n1` [Example 308, ((4aS,6S)-6-((1-ethyl-1H-pyrazol-3-yl)sulfonyl)-1-(4-fluorophenyl)-1,4,5,6,7,8-hexahydro-4aH-benzo[f]indazol-4a-yl)(5-(trifluoromethyl)pyridin-2-yl)methanone], at CYP2C8, the inhibition at 5 min lay in the range of 25 to 50%. Besides, the 50% inhibitory concentration (IC50) at GR is no more than 100 nM.
The like results for `O=C(c1ccc(C(F)(F)F)cn1)[C@]12Cc3cnn(-c4ccc(F)cc4)c3C=C1CC[C@H](S(=O)(=O)c1ccn(C3CC3)n1)C2` [Example 309, ((4aS,6S)-6-((1-cyclopropyl-1H-pyrazol-3-yl)sulfonyl)-1-(4-fluorophenyl)-1,4,5,6,7,8-hexahydro-4aH-benzo[f]indazol-4a-yl)(5-(trifluoromethyl)pyridin-2-yl)methanone] were, in that order, no more than 25% and no more than 100 nM.
On to `CC(C)n1ccc(S(=O)(=O)[C@H]2CCC3=Cc4c(cnn4-c4ccc(F)cc4)C[C@]3(C(=O)c3ccc(C(F)(F)F)cn3)C2)n1` [Example 310, ((4aS,6S)-1-(4-fluorophenyl)-6-((1-isopropyl-1H-pyrazol-3-yl)sulfonyl)-1,4,5,6,7,8-hexahydro-4aH-benzo[f]indazol-4a-yl)(5-(trifluoromethyl)pyridin-2-yl)methanone], for which the inhibition at 5 min against CYP2C8 lay within 25 to 50%. The IC50 at GR is no more than 100 nM.
The like results for `Cn1cc(S(=O)(=O)N(CC(F)F)[C@H]2CCC3=Cc4c(cnn4-c4ccc(F)cc4)C[C@]3(C(=O)c3cc(C(F)(F)F)ccn3)C2)nn1` [Example 311, N-(2,2-difluoroethyl)-N-((4aS,6S)-1-(4-fluorophenyl)-4a-(4-(trifluoromethyl)picolinoyl)-4,4a,5,6,7,8-hexahydro-1H-benzo[f]indazol-6-yl)-1-methyl-1H-1,2,3-triazole-4-sulfonamide] were, in that order, no more than 25% and no more than 100 nM.
The like results for `O=C(c1ncc(C(F)(F)F)s1)[C@]12Cc3cnn(-c4ccc(F)cc4)c3C=C1CC[C@H](N(CC(F)(F)F)S(=O)(=O)c1ccc(Cl)nc1)C2` [Example 312, 6-chloro-N-((4aS,6S)-1-(4-fluorophenyl)-4a-(5-(trifluoromethyl)thiazole-2-carbonyl)-4,4a,5,6,7,8-hexahydro-1H-benzo[f]indazol-6-yl)-N-(2,2,2-trifluoroethyl)pyridine-3-sulfonamide] were, in that order, 25 to 50% and no more than 100 nM.
